Each structure is given as a SMILES string. pIC50, pKi: −log10 of the molar value. A value given as a limit tells only on which side of the number the result lay.

The values below come from ChEMBL document CHEMBL5252561, “Evaluation of darunavir-derived HIV-1 protease inhibitors incorporating P2' amide-derivatives: Synthesis, biological evaluation and structural studies” (Bioorg Med Chem Lett, 2023).

The target in the first test is Human immunodeficiency virus type 1 protease (Human immunodeficiency virus 1, UniProt Q72874). Kind of test: Inhibition of HIV-1 protease using Abz-NF-6 as substrate assessed as inhibition constant measured every 2 mins for 20 mins by fluorescence based […] analysis.
Conditions: not given
Background: ELISA stands for enzyme-linked immunosorbent assay.
For `CC(C)CN(C[C@@H](O)[C@H](Cc1ccccc1)NC(=O)O[C@H]1CO[C@H]2OCC[C@H]21)S(=O)(=O)c1ccc(NC(=O)CN[C@H](C)c2ccccc2)cc1`, the pKi was 11.28.

Take `CC(C)CN(C[C@@H](O)[C@H](Cc1ccccc1)NC(=O)O[C@H]1CO[C@H]2OCC[C@H]21)S(=O)(=O)c1ccc(NC(=O)CCl)cc1`: the pKi is 11.36.

In the case of `CC(C)CN(C[C@@H](O)[C@H](Cc1ccccc1)NC(=O)O[C@H]1CO[C@H]2OCC[C@H]21)S(=O)(=O)c1ccc(NC(=O)[C@@H](N)C(C)C)cc1`, the pKi is 9.35.

`CCNCC(=O)Nc1ccc(S(=O)(=O)N(CC(C)C)C[C@@H](O)[C@H](Cc2ccccc2)NC(=O)O[C@H]2CO[C@H]3OCC[C@H]32)cc1`: the pKi is 11.04.

Consider `CCN(CC)CC(=O)Nc1ccc(S(=O)(=O)N(CC(C)C)C[C@@H](O)[C@H](Cc2ccccc2)NC(=O)O[C@H]2CO[C@H]3OCC[C@H]32)cc1`, for which the pKi was 9.52.

As to `CC(C)CN(C[C@@H](O)[C@H](Cc1ccccc1)NC(=O)O[C@H]1CO[C@H]2OCC[C@H]21)S(=O)(=O)c1ccc(NC(=O)CNC(=O)OC(C)(C)C)cc1`, the pKi is 6.51.

As to `CC(=O)Nc1ccc(S(=O)(=O)N(CC(C)C)C[C@@H](O)[C@H](Cc2ccccc2)NC(=O)O[C@H]2CO[C@H]3OCC[C@H]32)cc1`, the negative logarithm of the Ki (pKi) was 12.22.

Regarding `CC(C)CN(C[C@@H](O)[C@H](Cc1ccccc1)NC(=O)O[C@H]1CO[C@H]2OCC[C@H]21)S(=O)(=O)c1ccc(NC(=O)CN(C)C)cc1`, the pKi is 11.82.

As for `CC(C)CN(C[C@@H](O)[C@H](Cc1ccccc1)NC(=O)O[C@H]1CO[C@H]2OCC[C@H]21)S(=O)(=O)c1ccc(NC(=O)CNC(C)C)cc1`, the pKi is 9.41.

Take `CC(C)CN(C[C@@H](O)[C@H](Cc1ccccc1)NC(=O)O[C@H]1CO[C@H]2OCC[C@H]21)S(=O)(=O)c1ccc(NC(=O)[C@H](NC(=O)OC(C)(C)C)C(C)C)cc1`: the pKi was 6.47.

Turning to `CC(C)CN(C[C@@H](O)[C@H](Cc1ccccc1)NC(=O)O[C@H]1CO[C@H]2OCC[C@H]21)S(=O)(=O)c1ccc(NC(=O)[C@@H](NC(=O)OC(C)(C)C)C(C)C)cc1`, the pKi is 6.75.

For the compound `CC(C)CN(C[C@@H](O)[C@H](Cc1ccccc1)NC(=O)O[C@H]1CO[C@H]2OCC[C@H]21)S(=O)(=O)c1ccc(NC(=O)CN)cc1`, the pKi is 10.04.

A further test has as its system Human immunodeficiency virus. Kind of test: Antiviral activity against HIV LAI infected in human MT-2 cells assessed as inhibition of viral growth. The following applies: Human immunodeficiency virus 1, LAI, MT2. It counts as functional, organism-based.
`CC(C)CN(C[C@@H](O)[C@H](Cc1ccccc1)NC(=O)O[C@H]1CO[C@H]2OCC[C@H]21)S(=O)(=O)c1ccc(NC(=O)CN[C@H](C)c2ccccc2)cc1`: the pIC50 was 7.41.

With `CC(C)CN(C[C@@H](O)[C@H](Cc1ccccc1)NC(=O)O[C@H]1CO[C@H]2OCC[C@H]21)S(=O)(=O)c1ccc(NC(=O)CCl)cc1`, the pIC50 was 7.49.

On to `CC(C)CN(C[C@@H](O)[C@H](Cc1ccccc1)NC(=O)O[C@H]1CO[C@H]2OCC[C@H]21)S(=O)(=O)c1ccc(C(N)=O)cc1`, for which the pIC50 is 7.03.

For `CC(C)CN(C[C@@H](O)[C@H](Cc1ccccc1)NC(=O)O[C@H]1CO[C@H]2OCC[C@H]21)S(=O)(=O)c1ccc(C(=O)O)cc1`, the negative logarithm of the IC50 (pIC50) is below 6.00.

For `CC(C)CN(C[C@@H](O)[C@H](Cc1ccccc1)NC(=O)O[C@H]1CO[C@H]2OCC[C@H]21)S(=O)(=O)c1ccc(NC(=O)[C@@H](N)C(C)C)cc1`, the pIC50 is 7.60.

Regarding `CCNCC(=O)Nc1ccc(S(=O)(=O)N(CC(C)C)C[C@@H](O)[C@H](Cc2ccccc2)NC(=O)O[C@H]2CO[C@H]3OCC[C@H]32)cc1`, the pIC50 was 6.55.

Regarding `CCN(CC)CC(=O)Nc1ccc(S(=O)(=O)N(CC(C)C)C[C@@H](O)[C@H](Cc2ccccc2)NC(=O)O[C@H]2CO[C@H]3OCC[C@H]32)cc1`, the pIC50 is below 6.00.

For `CC(=O)Nc1ccc(S(=O)(=O)N(CC(C)C)C[C@@H](O)[C@H](Cc2ccccc2)NC(=O)O[C@H]2CO[C@H]3OCC[C@H]32)cc1`, the pIC50 was 7.54.

In the case of `CC(C)CN(C[C@@H](O)[C@H](Cc1ccccc1)NC(=O)O[C@H]1CO[C@H]2OCC[C@H]21)S(=O)(=O)c1ccc(NC(=O)CN(C)C)cc1`, the pIC50 is below 6.00.

For the compound `CC(C)CN(C[C@@H](O)[C@H](Cc1ccccc1)NC(=O)O[C@H]1CO[C@H]2OCC[C@H]21)S(=O)(=O)c1ccc(N)cc1`, the pIC50 is 8.80.

As to `CC(C)CN(C[C@@H](O)[C@H](Cc1ccccc1)NC(=O)O[C@H]1CO[C@H]2OCC[C@H]21)S(=O)(=O)c1ccc(NC(=O)CNC(C)C)cc1`, the pIC50 is 7.51.

As for `CC(C)CN(C[C@@H](O)[C@H](Cc1ccccc1)NC(=O)O[C@H]1CO[C@H]2OCC[C@H]21)S(=O)(=O)c1ccc(NC(=O)[C@H](NC(=O)OC(C)(C)C)C(C)C)cc1`, the pIC50 was 6.37.

Take `CC(C)CN(C[C@@H](O)[C@H](Cc1ccccc1)NC(=O)O[C@H]1CO[C@H]2OCC[C@H]21)S(=O)(=O)c1ccc(NC(=O)[C@@H](NC(=O)OC(C)(C)C)C(C)C)cc1`: the pIC50 is 6.27.

Another test has as its system Human immunodeficiency virus. Kind of test: Potency index, ratio of test compound IC50 to darunavir IC50 for antiviral activity against HIV LAI infected in human MT-2 cells assessed as inhibition of viral growth.
Conditions: not given
It counts as functional, MT2.
For `CC(=O)Nc1ccc(S(=O)(=O)N(CC(C)C)C[C@@H](O)[C@H](Cc2ccccc2)NC(=O)O[C@H]2CO[C@H]3OCC[C@H]32)cc1`, the “Ratio IC50” value came out at 10.

A word on the pKi: it is the negative decadic logarithm of the Ki, by convention in mol/L. As a reminder, the pIC50 is the IC50 on a negative log10 scale, so that one unit is a factor of ten.
